Laboratory results reported in patent US20050148495A1, “Methods and materials including for treating acne” (priority 2003, published 2005).
≈ marks a conversion by molar mass, not a printed value. Where two headings read alike, the source gives them in different places. Non-standard residues stand in square brackets, D forms with d. Residues, ends and D or L forms follow the SMILES beside them. d1Nal = N[C@H](Cc1cccc2ccccc12)C(=O)O

How the values were obtained:
[1] = Additional studies: intravenous administration safety; type: in vivo; settings: intravenously
Experimental: In additional studies in an acute peritonitis model, mice were challenged intraperitoneally with 1.4×10^7 CFU E. coli 07:K1 and treated intraperitoneally with XMP.629 at 1, 3, or 10 mg/kg or saline. Mice were observed twice daily and mortality was recorded for seven days. Statistical comparisons between the treatment groups and saline were performed using a Chi Square test. […] At 10 mg/kg, 87% protection was observed. In additional studies, XMP.629 was safely administered at a dose of 20 mg/kg intravenously.

[2] = system: albino hairless guinea pigs Crl:IAF(HA)-hrBR (Outbred); assay: Photosafety study: primary irritancy, phototoxicity, contact hypersensitivity, photoallergy; type: in vivo, guinea pig; settings: XMP.629 up to 10 mg/mL (1.0%)
Experimental: XMP.629 was evaluated for photoallergic potential administered topically to hairless guinea pigs. Primary irritancy, phototoxicity (photoirritancy) and contact hypersensitivity were also evaluated in these studies.
Male CrI:IaF(HA)-hrBR (Outbred) albino hairless guinea pigs were assigned to 7 groups, five guinea pigs per group as outlined below.
XMP.629 was formulated as a gel. The phototoxicity comparator article was 8-methoxypsoralen (8-MOP) in methanol at concentrations of 0.1, 0.3 and 1.0 mg/mL. The contact hypersensitivity and photoallergy comparator article was 3,3′,4′,5′-tetrachlorosalicy/anilide (TCSA) in acetone:corn oil (4:1, v/v) at challenge concentrations of 0 (Vehicle), 10, and 30 mg/mL. The reagent and reagent vehicle were Freund's complete adjuvant (FCA) and sterile water for injection, USP, respectively.
The formulation administration and ultraviolet radiation (UVR) exposure regimens for each group in the study were as follows.
For all phases of the study, test articles, test article vehicles, comparator articles and comparator article vehicles were administered (0.3 ml) using a Hilltop chamber affixed to the guinea pig with dental dam overlaid with a Velcro® wrap for approximately 2.0 hours per administration.
Primary irritancy potential of the test articles and test article vehicles was evaluated in Group 1 guinea pigs. Three chambers (one per formulation dosage) were attached to the dorsal skin along the midline. After the administration period the chamber patches were removed and the application sites were gently wiped.
Cutaneous phototoxicity potential of the test articles and test article vehicles was evaluated in Group 2 guinea pigs. Group 3 guinea pigs were used as a comparator group with elicitation of phototoxicity with 8-MOP. Three chambers (one per formulation dosage) were attached to the dorsal skin along the midline and occluded. After the administration period the chamber patches were removed and the application sites were gently wiped. After wiping, Group 2 and 3 guinea pigs were exposed to solar-simulated UVR for approximately 2.25 hours.
For induction of contact hypersensitivity and photoallergy, a nuchal area of skin approximately 2.5 cm^2 was defined by intradermal injections with a formulation of sterile water and FCA in guinea pigs in Groups 4 through 7 under isoflurane/oxygen anesthesia. This skin area was then tape stripped five times. Formulations were topically administered via chambers as described in the study design table using one chamber attached to the nuchal area. After removal of the chambers the application sites were gently wiped and the nuchal site of Group 6 and 7 guinea pigs was exposed to UVR as above. Appropriate procedures for guinea pigs (with the exception of injection with FCA) were repeated once daily on Days 3, 5, 8, 10 and 12 of the induction phase.
On Day 22 (contact hypersensitivity and photoallergy challenge), formulations were topically applied to appropriate sites on guinea pigs in Groups 4 through 7 as described above. Three chambers (one per formulation dosage) were attached to the dorsal skin along the midline and occluded. The chambers were then removed and the application sites were gently wiped. Guinea pigs in Groups 6 and 7 were then exposed to UVR as above.
Observations for general appearance and clinical signs were made weekly throughout the study. […] Body weights were recorded at initiation of dosing for each phase, weekly thereafter and at sacrifice. […]

Propionibacterium acnes = Propionibacterium acnes 6919
[3] = system: Propionibacterium isolates; settings: 15 isolates
Experimental: Inoculum from a representative panel of bacterial strains associated with acne, such as P. acnes, P. avidum, P. granulosum, and Staphylococcus epidermis was prepared by suspending approximately 5-10 isolated bacterial colonies in pre-reduced MicroScan® Inoculum Water (Dade Behring, Deerfield, Ill.), and growing the bacterial suspension to log phase (approximately 48 hrs). An inoculum of between 1-5×10^6/mL was achieved by adding 100 μL of the suspension to 25 mL Brain Heart Infusion Broth (BHI) (Anaerobe Systems, Morgan Hill, Calif.).
Control tubes containing only water or formulation buffer were prepared for each isolate. Initial growth controls were determined by removing 10 μL from the water control tube and diluting it by 100 fold. From this dilution, 10 μL was used for inoculation and for spreading over the surface onto Laked Blood Agar (LBA) (Anaerobe Systems, Morgan Hill, Calif.) plates. The tubes and plates were incubated in an anaerobic atmosphere at 37° C. for 48 h. […] MBC50 and 90 values represent where 50 and 90%, respectively, of the tested strain's MBC values are equal to or less than the indicated concentration.

Streptococcus sobrinus = Streptococcus sobrinus 27607
[4] = Formulation Buffer Solvent, Study 1
[5] = Formulation Buffer Solvent, Study 2

CC(C)C[C@@H](NC(=O)[C@H](N)CCCCN)C(=O)N[C@H](Cc1ccccc1)C(=O)N[C@H](CCCNC(=N)N)C(=O)N[C@H](Cc1cccc2ccccc12)C(=O)N[C@H](CCC(N)=O)C(=O)N[C@H](C)C(=O)N[C@H](CCCCN)C(=O)N[C@H](Cc1cccc2ccccc12)C(N)=O [XMP.629, NH2-lys-leu-phe-arg-(3-(1-naphthyl)-ala)-gln-ala-lys-(3-(1-naphthyl)-ala)-CONH2] (H-[dK][dL][dF][dR][d1Nal][dQ][dA][dK][d1Nal]-NH2)
dose safely administered [1]: 20 mg/kg | contact hypersensitivity [2]: did not cause skin changes | photoallergy [2]: did not cause skin changes | phototoxicity ([2]; single topical administration and UVR): did not cause skin changes | primary irritation ([2]; single topical administration, 0.3 mL/skin site): did not cause skin changes | Minimum Inhibitory Concentrations (Propionibacterium acnes): 1.00 µg/mL | MBC GeoMean Values [3, 4]: 1.2 µg/mL (≈ 0.935 µM) | MIC GeoMean Values [3, 4]: 0.7 µg/mL (≈ 0.545 µM) | MBC GeoMean Values [3, 5]: 1.10 µg/mL (≈ 0.857 µM) | MIC GeoMean Values [3, 5]: 0.7 µg/mL (≈ 0.545 µM) | MBC GeoMean Values ([3]; Water Solvent, Study 1): 2.41 µg/mL (≈ 1.88 µM) | MIC GeoMean Values ([3]; Water Solvent, Study 1): 1.7 µg/mL (≈ 1.32 µM) | MBC GeoMean Values ([3]; Water Solvent, Study 2): 1.9 µg/mL (≈ 1.48 µM) | MIC GeoMean Values ([3]; Water Solvent, Study 2): 1.7 µg/mL (≈ 1.32 µM) | Minimum Inhibitory Concentrations (Streptococcus sobrinus): 2.00 µg/mL | volume of the central compartment (0.05 mg/kg dose): 203.2 mL/kg | decrease of plasma concentrations within 4 hours of dosing (intravenous): approximately 100 fold
